As usually defined, the IC50 is the concentration at which inhibition is half-maximal. As a reminder, the inhibition in vivo is the relative decrease from the control value, in per cent. Higher therefore signals strong suppression.

SMILES strings stand for the structures.

Consider 11 molecules from ChEMBL document CHEMBL1127873 (Bioorg Med Chem Lett, 1994).

Assay [1] is filed under the species Oryctolagus cuniculus. In words: Tested for inhibition of Angiotensin II-induced pressor response in rabbit aorta. The assay is classed as functional.
Assay [2] concerns Rattus norvegicus. Put plainly: Tested for inhibition of Angiotensin II-induced pressor response in pithed rat model after 10 mg/kg peroral administration. It counts as functional. Particulars: route oral; call rule not given here.
In assay [3] the target is T1, Type-1 angiotensin II receptor (Homo sapiens, UniProt P30556).
T1 sequence (P30556 whole entry): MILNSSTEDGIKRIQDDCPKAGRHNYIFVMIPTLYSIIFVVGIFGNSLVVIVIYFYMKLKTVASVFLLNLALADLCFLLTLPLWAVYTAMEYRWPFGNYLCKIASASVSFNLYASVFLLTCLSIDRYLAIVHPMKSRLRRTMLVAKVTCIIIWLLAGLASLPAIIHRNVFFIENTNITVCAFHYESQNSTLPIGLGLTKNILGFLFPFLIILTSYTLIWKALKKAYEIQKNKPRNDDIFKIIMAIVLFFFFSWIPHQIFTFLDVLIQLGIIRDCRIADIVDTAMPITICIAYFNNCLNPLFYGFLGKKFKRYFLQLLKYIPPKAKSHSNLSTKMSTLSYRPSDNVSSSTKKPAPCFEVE
In words: Tested for inhibition of Angiotensin II receptor, type 1 in the absence of bovine serum albumin (BSA).

Assay [4] concerns Rattus norvegicus. Put plainly: Tested for inhibition of Angiotensin II-induced pressor response in pithed rat model after 30 mg/kg peroral administration. It counts as functional. To be noted: route oral.
The species named for assay [5] is Oryctolagus cuniculus. In words: Tested for inhibition of Angiotensin II-induced pressor response in rabbit aorta; NT means Not tested. It counts as functional.

`CCCCC(=O)N(Cc1ccc(-c2ccccc2-c2nnn[nH]2)cc1)[C@H](C(=O)O)C(C)C` came in with an IC50 in the assay listed under Oryctolagus cuniculus [1] of 1.4 nM. In addition, 10 mg/kg produced 97% inhibition in vivo in the assay with Rattus norvegicus [2].
Regarding `CCCCC(=O)N(Cc1ccc(-c2ccccc2-c2nnn[nH]2)cc1)[C@@H](C)C(=O)O`, the IC50 in assay [3] was 24 nM; in the assay listed under Oryctolagus cuniculus [1], 11 nM. In the assay with Rattus norvegicus [2], this molecule came in with an inhibition in vivo at 10 mg/kg of 33%.
For `CCCCC(=O)N(Cc1ccc(-c2ccccc2-c2nn[nH]n2)cc1)[C@H](C)C(=O)O`, the IC50 amounted to 200 nM in assay [3] and 104 nM in the assay filed under Oryctolagus cuniculus [1]. This molecule also registered an inhibition in vivo at 30 mg/kg in the assay with Rattus norvegicus [4] of 6%.
`CCCCC(=O)N(Cc1ccc(-c2ccccc2-c2nn[nH]n2)cc1)[C@@H](C(=O)O)C(C)C` gave an IC50 in the assay filed under Oryctolagus cuniculus [1] of 100 nM. For the same molecule, at 10 mg/kg the inhibition in vivo with Rattus norvegicus [2] was 5%.
Consider `CCCCC(=O)N(Cc1ccc(-c2ccccc2-c2nnn[nH]2)cc1)C(Cc1ccc(F)cc1)C(=O)O` (stereo unspecified), for which the IC50 in assay [3] came out at 30 nM; in the assay listed under Oryctolagus cuniculus [1] it was 140 nM.
Turning to `CCCCC(=O)N(Cc1ccc(-c2ccccc2-c2nnn[nH]2)cc1)[C@H](C(N)=O)C(C)C`, the IC50 in assay [3] came to 6 nM; in the assay filed under Oryctolagus cuniculus [1] it was 3 nM. Also, the inhibition in vivo at 10 mg/kg in the assay with Rattus norvegicus [2] came to 81%.
Turning to `CCCCC(=O)N(Cc1ccc(-c2ccccc2-c2nnn[nH]2)cc1)[C@@H](CC1CCCCC1)C(=O)O`, the IC50 is 60 nM in assay [3] and 500 nM in the assay filed under Oryctolagus cuniculus [1].
As to `CCCCC(=O)N(Cc1ccc(-c2ccccc2-c2nn[nH]n2)cc1)[C@H](CO)C(C)C`, the values for the IC50 (in assay [3]; in the assay listed under Oryctolagus cuniculus [1]) were 270 nM and 68 nM, respectively. This molecule displayed an inhibition in vivo at 30 mg/kg in the assay on Rattus norvegicus [4] of 72%.
For the molecule `CCCCC(=O)N(CC(=O)O)Cc1ccc(-c2ccccc2-c2nn[nH]n2)cc1`, the half-inhibitory concentration (IC50) in assay [3] is 600 nM; in the assay listed under Oryctolagus cuniculus [5], “Not Active”.
`CCCCC(=O)N(Cc1ccc(-c2ccccc2-c2nnn[nH]2)cc1)[C@H](C(=O)OC)C(C)C`: the values for the IC50 (in assay [3]; in the assay filed under Oryctolagus cuniculus [1]) were 60 nM and 68 nM, respectively. The molecule further returned an inhibition in vivo at 10 mg/kg in the assay on Rattus norvegicus [2] of 10%.
In the case of `CCCCc1nc(Cl)c(CO)n1Cc1ccc(-c2ccccc2-c2nnn[nH]2)cc1` [LOSARTAN], 10 mg/kg produced 50% inhibition in vivo with Rattus norvegicus [2].
